Results on three compounds are retold here after patent US20180104336A1, “Method of Increasing Radiation Sensitivity of Tumor Cells” (priority 2016, published 2018).

Data set [1] has as its system A549 cells. The experiment in a line: GLS inhibition experiment, bright field images of cell death. The format is cell-based, human. The conditions noted are these: 10, 20, 40 and 100 μM, 48 hrs. The protocol:
(§1) GLS inhibition experiments: In the mechanistic experiments with BPTES or CB-839, cells (7500) were seeded (Time—24 hrs) into 96-well plates containing 100 μl complete medium, and allowed to attach for 24 hrs. Complete medium was added (Time 0 hrs) containing various concentrations of GLS inhibitors to give the final concentrations of 0.001 to 100 μM. Media aliquots of 25 μl were removed from each well at 24, 36, and 48 hrs to monitor the time course of metabolite consumption and production (metabolomic footprint). Cells were maintained at 37° C., 5% CO2 and 40% humidity until time of harvest. Cell viability was determined using Cell Glow, Cell TOX or MTT assays according to manufacture descriptions.

Data set [2] has as its system H460 cells. The description is as above. Conditions: 10, 20, 40 and 100 μM, 48 hrs. The format is cell-based, human. How it is done:
as §1

Data set [3] deals with H460 and A549 lung tumor cells. The experiment in a line: Glutathione synthesis and excretion after GLS inhibition, cell lines not separated. The format is cell-based, human. The conditions noted are these: for fold more effective in depletion of glutathione: compared with 100 to 10,000 μM buthionine sulfoximine reported previously; for glutathione synthesis and excretion: in vitro. How it is done: GLS inhibition experiments: In the mechanistic experiments with BPTES or CB-839, cells (7500) were seeded (Time—24 hrs) into 96-well plates containing 100 μl complete medium, and allowed to attach for 24 hrs. […] Media aliquots of 25 μl were removed from each well at 24, 36, and 48 hrs to monitor the time course of metabolite consumption and production (metabolomic footprint). Cells were maintained at 37° C., 5% CO2 and 40% humidity until time of harvest. Cell viability was determined using Cell Glow, Cell TOX or MTT assays according to manufacture descriptions.
LC-MS quantitation by liquid chromatography tandem mass spectrometry (LC-MS/MS): Metabolites were extracted from cell pellets by the addition of 3 ml of 50% methanol/0.2% formic acid to the frozen cells in the culture flasks. Cells were scraped from the culture flasks and transferred to 15 ml tubes. Proteins were precipitated from 750 μl cell pellet suspensions by addition of 1050 μl acetonitrile/0.2% formic acid. Metabolites were extracted from 25 or 100 μl culture media from 96 well plates or 25-T flasks, respectively, and with the respective addition of 275 μl or 1300 μl of 40% methanol/60% acetonitrile/0.2% formic acid. Cell pellets or media suspensions were incubated on ice for 30 min, followed by centrifugation for 10 min at 13000 g. Supernatants were transferred to new vials, solvents were removed in a speed vac and the concentrated metabolites stored at -80° C. until analysis.
Samples were reconstituted in 0.2% formic acid and analyzed by LC-MS/MS (Agilent, 1290 Infinity LC coupled to an Agilent 6490 triple quadrupole mass analyzer). An Agilent Poroshell 2.7 μm C18 (2.1 mm×100 mm) column was operated with a linear gradient from 2% Methanol/0.01% formic acid to 95% Methanol/0.01% formic acid in 10 min. Individual metabolites were monitored in multiple reactions monitoring mode, monitoring specific ion transitions shown in Table 1. The specific ion transitions and retention times for each metabolite were established experimentally using commercially available standard compounds. Quantitation of the individual metabolites were based on external calibration curves that were generated with each set of samples. In the stable isotope tracing experiment, ^13C5-incorporation into subsequent metabolites was determined by monitoring the corresponding m/z ion transitions (Table 1).

The subject of data set [4] is A549 cells. The experiment in a line: Radiation sensitivity by clonogenic assay. The format is cell-based, human. Conditions: 2 μM BPTES 24 h, 4 Gy and 8 Gy, p<0.001. The protocol: (§2) Radiation exposure of lung tumor cell lines: Radiation sensitivity was determined by methods described previously. In brief, for colony formation, A549 and H460 cells were seeded in 6-well plates containing 3 ml standard complete medium and allowed to attach for 24 h. Media were changed and cells were grown for another 24 h in standard medium, glutamine-free medium, medium containing 2 μM BPTES (to deplete glutathione), and medium containing only the vehicle. Cells were subsequently radiated using a Faxitron X-ray Generating System (CP-160, Faxitron X-Ray Corp., Wheeling, Ill.). Single-doses of 4 or 8 Gy (Gray) were delivered at a dose rate of 1 Gy/min (150 kVp and 6.6 mA). Cells were then placed in standard complete RPMI medium and allowed to form colonies for 8 days. The surviving colonies (containing >˜50 cells) were stained and counted on a stereomicroscope. Plating efficiency (PE) of cells with each treatment were determined and normalized to that of control untreated cells and the surviving fractions were calculated by dividing the PE of the treated cells by the PE of the control untreated cells.

For data set [5], the system named is H460 cells. Nature of the data set: Radiation sensitivity by clonogenic assay. The format is cell-based, human. The conditions noted are these: 2 μM BPTES 24 h, 4 Gy and 8 Gy, p<0.001. How it is done: as §2
The test system of data set [6] is H460 and A549 lung tumor cells. The format is cell-based. The conditions noted are these: for cell proliferation and viability: FIG. 4 and FIG. 8. How it is done:
Media aliquots of 25 μl were removed from each well at 24, 36, and 48 hrs to monitor the time course of metabolite consumption and production (metabolomic footprint). Cells were maintained at 37° C., 5% CO2 and 40% humidity until time of harvest. Cell viability was determined using Cell Glow, Cell TOX or MTT assays according to manufacture descriptions.
Cells were seed in 6-well and allowed to attach for 1 day.
(§3) [^13C5]-glutamine experiments: To determine the fraction of glutathione that is derived directly from glutamine, A549 and H460 cell lines were cultured in 96-well plates in glutamine-free medium supplemented with 0.3 g/L [^13C5]-glutamine. Cell media aliquots were harvested at 12, 24, 36, and 48 hrs. Light microscopy was used at 12 hours to visualize the cells at each dosage. After 48 hours the CellTiter 96, CellTiter-Glo® 2.0, and CellTox™ Green Cytotoxicity assays, (Promega, Madison, Wis.) were utilized to respectively assess cell proliferation, cell viability, and cell death of both the BPTES and [^13C5]-glutamine experiments.
as §2

For data set [7], the system named is A549 cells. The experiment in a line: GSHE experiment: cell viability and toxicity with 10 μM BPTES. The protocol: as §3
(§4) Glutathione-monoethyl ester (GSHE) experiments: Cells (7500) were seeded into 96 well plates containing 100 μl complete media. Cells were treated with 10 μM BPTES in DMSO and 0, 1, 5 and 10 mM GSHE. After 48 hrs cells were harvested and cell viability and toxicity were assessed as described above.

Data set [8] concerns H460 cells. Described as above. The protocol:
as §3, §4

A further data set concerns H460 cell-derived tumors. Nature of the data set: H460 mouse xenograft, tumor volume with and without radiation. The format is in vivo, nude mice. The text has this:
METHOD: Mouse xenograft experiments. For the first in vivo study, H460 cell-derived tumors were engrafted on the hind flank of 20 male. […] (1) control (2) CB-839, (3) 18 Gy radiation and (4) CB-839 plus 18 Gy radiation. For the second in vivo experiment, H460 cell-derived tumors were engrafted on the hind flank of 50 female nude mice. […] (1) Vehicle only, (2) 2 Gy radiation, (3) 4 Gy radiation, (4) 8 Gy radiation, (5) 12 Gy radiation, (6) Vehicle only plus CB-839, (7) 2 Gy radiation plus CB-839, (8) 4 Gy radiation plus CB-839, (9) […], (10) 12 Gy radiation plus CB-839. CB-839 was given three times at 20 mg/kg by oral gavage at 28, 16 and 4 hrs prior to a single dose of 18 Gy radiation. CB-839 was administered by oral gavage as solution of 200 mg/kg CB-839 in 200 ul 25% (w/v) hydroxypropyl-b-cyclodextrin in 10 mmol/[…], pH 2 or 25% (w/v) hydroxypropyl- b-cyclodextrin in 10 mmol/L citrate, pH 2. Thirty minutes prior to radiation treatment, 50 μl blood was taken form tail vein and serum was analyzed for reduced and oxidized GSH by LC-MS. Radiation was given as a single 1Gy/min dose for 2, 4, 8, 12, or 18 min respectively. Tumor volume measurements were repeated at the indicated days until termination of the animals. Tumor volume was computed by multiplying “a” times (“a” X “b”)/2. The “Mean tumor volumes” and “Relative tumor volume” for male and female mice are graphed in FIGS. 9A-B and FIGS. 10A-F, respectively.

Data set [9] deals with total glutathione in serum. Nature of the data set: Total glutathione (reduced plus oxidized) in serum by LC-MS at day of radiation. The format is in vivo, nude mice. How it is done: CB-839 was given three times at 20 mg/kg by oral gavage at 28, 16 and 4 hrs prior to a single dose of 18 Gy radiation. CB-839 was administered by oral gavage as solution of 200 mg/kg CB-839 in 200 ul 25% (w/v) hydroxypropyl-b-cyclodextrin in 10 mmol/Lcitrate, pH 2 or 25% (w/v) hydroxypropyl- b-cyclodextrin in 10 mmol/L citrate, pH 2. Thirty minutes prior to radiation treatment, 50 μl blood was taken form tail vein and serum was analyzed for reduced and oxidized GSH by LC-MS. Radiation was given as a single 1Gy/min dose for 2, 4, 8, 12, or 18 min respectively. Tumor volume measurements were repeated at the indicated days until termination of the animals. Tumor volume was computed by multiplying “a” times (“a” X “b”)/2. The “Mean tumor volumes” and “Relative tumor volume” for male and female mice are graphed in FIGS. 9A-B and FIGS. 10A-F, respectively.

[10] abbreviates: male nude mice, day #17, CB-839 20 mg/kg oral gavage 28, 16 and 4 hrs before 18 Gy.

SMILES strings stand for the structures. Entries after “also recorded” stand apart in the source; their conditions may differ.

For the compound `O=C(Cc1ccccc1)Nc1nnc(CCSCCc2nnc(NC(=O)Cc3ccccc3)s2)s1` [BPTES, Bis-2-(5-phenyl-acetamido-1,3,4-thiadiazol-2-yl) ethyl sulfide], the “cell death, visual” value with A549 cells [1] and in the data set on H460 cells [2] was “visual increase in cell death” each time. In addition, the “concentration at which glutathione excretion was essentially abolished” value in data set [3] (FIG. 4, H460 and A549) was above 5 µM. The “fold more effective in depletion of glutathione” value in data set [3] is at least 100 fold. Further, in data set [3], the “glutathione synthesis and excretion” value is “abolished glutathione excretion”. Besides, the “radiation response, colony formation compared to control cells” value with A549 cells [4] and with H460 cells [5] was “radiation-induced reduction in colony formation” throughout. Further, the “cell proliferation and viability” value in data set [6] was “reduced cell proliferation and viability”. Besides, the cell growth result in data set [6] (FIGS. 4A-4C) is given as “significant growth inhibition”. Also, the cell viability entry in the data set on A549 cells [7] (10 μM BPTES, 48 hrs) was “reduced viability”; in the data set with H460 cells [8] (10 μM BPTES, 48 hrs), “reduced viability”.
For `O=C(Cc1cccc(OC(F)(F)F)c1)Nc1ccc(CCCCc2nnc(NC(=O)Cc3ccccn3)s2)nn1` [CB-839], the “response to radiation treatment improved, based on tumor volume over time” value with H460 cell-derived tumors (H460 xenograft, short term (3 times) CB-839) is on record as “more than 25%”. Further, in the data set on H460 cell-derived tumors (H460 xenograft, short term (3 times) CB-839, no radiation), the “efficacy of short term CB-839 alone” value is reported as “does not show efficacy”. Also, the “tumor growth, CB-839 alone” value in the data set with H460 cell-derived tumors (female nude mice, 3 doses orally every 12 hrs) was “did not affect the tumor growth”. The “accelerated tumor growth caused by 2 Gy radiation” value with H460 cell-derived tumors (female nude mice, CB-839 plus 2 Gy) is “prevented”. In the data set on H460 cell-derived tumors (setting [10]), the “mean tumor size smaller, CB-839 plus radiation compared to CB-839 alone” value is 90% and the “mean tumor size smaller, CB-839 plus radiation compared to radiation alone” value stood at 20%. Besides, in the data set on H460 cell-derived tumors (male nude mice, three CB-839 treatments), the “tumor growth, CB-839 alone compared to control” value is reported as “did not affect subsequent tumor growth”. Further, the “total glutathione in blood lower” value in data set [9] (female nude mice, time of radiation, three doses of 200 mg/Kg/bw at 28, 16 and 4 hrs earlier) was 53%. The serum glutathione reduced in data set [9] (in vivo, short term treatment) is given as above 50%. Also, the “total GSH in serum lower compared to none treated mice” value in data set [9] (male nude mice, day #12 prior to radiation, CB-839 three times) is listed as 56%. Moreover, in [3], the “fold more effective in depletion of glutathione” value is “at least 1000 fold”; the “glutathione synthesis and excretion” value is “successfully depletes glutathione synthesis and excretion; also recorded: abolished glutathione excretion”. In [6], the “cell proliferation and viability” value was “reduced cell proliferation and viability”. The “sensitivity to ionizing radiation in vitro” value in [6] (in vitro) is recorded as “increase sensitivity to ionizing radiation”.
Regarding `CCOC(=O)CNC(=O)[C@H](CS)NC(=O)CC[C@H](N)C(=O)O` [GSHE, Glutathione-monoethyl ester], the “protection against BPTES-induced cytotoxicity” value with A549 cells [7] (1-10 mM GSHE with 10 μM BPTES) and in the data set with H460 cells [8] (1-10 mM GSHE with 10 μM BPTES) was “dose-dependent protection” throughout.
